From patent US20090172831A1, “Methods for the production of plants resistant to HPPD herbicides” (Syngenta Limited, priority 2000, published 2009) come the findings set out here.

Several values for one entry are separate records, joined by “and”; a condition that tells them apart may be missing. Equal values may be shown once. Read-outs that look alike come from different tables or passages of the source.

The target of one assay is Wheat HPPD (Triticum aestivum, UniProt A0A3B6NLC6). The experiment in a line: Dissociation of enzyme/inhibitor complexes by exchange with 14C-labelled inhibitor (koff; Kd = koff/kon). Type of assay: binding. The source says:
(§1) Herbicidal inhibitors of HPPD are found here to have generally low values of koff (in the range less than 0.0003 s^−1, often less than 0.000001 s^−1). It will be appreciated that many suitable methods known in the art for determining such low koff values are suitable for working the current invention. These include measuring rates of exchange of radio or otherwise labelled inhibitors either with or away from the enzyme inhibitor complex. For example enzyme inhibitor complexes can readily be prepared by incubating HPPD preparations with labelled or unlabelled inhibitor and then, after suitable periods, optionally rapidly separating the thus formed enzyme inhibitor complex from excess inhibitor by any suitable method such as ultrafiltration, binding to filters or exchange down a gel filtration column. Exchange reactions with the, thus prepared enzyme inhibitor complex is then initiated by addition of, as appropriate, excess labelled or unlabelled inhibitor. HPPD preparations suitable for use in the methods of the current invention are relatively unpurified, buffer-exchanged, supernatant fractions of spun crude lysates of E. coli strains engineered to express the HPPD enzyme of interest at a level of, typically, about 0.25-10% of the total soluble protein. Many methods such as radiometric, fluorimetric, NMR, fluorescence depolarisation, EPR, Mossbauer, UV/VIS spectrophotometry etc. or phonon resonance can, in principle, be used to monitor the enzyme/ligand exchange reactions and, particularly in this case where the enzyme contains an iron atom at the ligand binding site. Optionally, the monitoring method may be continuous (as, for example, with scintillation proximity/bead-based methods) or, discontinuous, based upon collection of data at various timepoints wherein samples are removed and the bound and unbound label components rapidly separated and quantitated.
(§2) Values of koff can suitably be calculated by computer fitting based upon is numerical integration of the exchange data along with information on the active-site concentration of HPPD and upon kon values obtained as described below. […] In any event, koff values are always here calculated from the rate of the major slow exchange reaction. It will be appreciated that within the scope of the current invention many methods of making the desired kinetic comparisons are possible without explicit or rigorous determination of off rates but, based upon the same underlying principle, will achieve the same selection result.
The dissociation rates (off rates) of inhibitors selected from Formula 1 and/or 2 and/or 3 and/or 4 from the complexes that they form with test and control HPPD enzymes are suitably measured in a number of ways. Thus, for example, the rates of dissociation of mesotrione, a compound selected from Formula 1 and of the diketonitrile of isoxaflutole, a compound selected from Formula 3 from their respective complexes with, test, wheat HPPD and with, control, Arabidopsis HPPD are compared. The method and results from a typical test are as follows.
^14C mesotrione is of specific activity 1.12 GBq/mmol. This is ˜95% pure radiochemically by TLC and based upon the proportion of material tight-binding to HPPD. Arabidopsis and, (test), wheat HPPD are each diluted to a concentration of ˜0.45 and 0.54 μM, respectively into 1.6 ml of 50 mM Bis-Tris propane buffer at pH 7.0 containing 25% glycerol, 25 mM sodium ascorbate and 3 mg/l of bovine catalase (Sigma C3155˜50,000 units/mg) containing […] ^14C mesotrione and left to react at 25 C for 2.5-3 h. Following this initial binding reaction, exchange reactions are initiated by addition of cold mesotrione to a final concentration of 60 μM and 200 μl aliquots removed at various times to rapid chromatography down a NAP5 gel filtration column equilibrated in 50 mM BTP at pH 7 containing 0.1 M KCl, separation into fractions containing protein-bound or free radiolabel and liquid scintillation counting. […]

The next assay concerns the target P. fluorescens HPPD (Pseudomonas fluorescens, UniProt A0ACG8AE61). The description is as above. Type of assay: binding.
Text: as §1
as §2, with “result. […]” for “result.”
Not all test inhibitors are readily available in a radiolabelled form. A more general method of measuring off rates is to first form the complex with unlabelled test inhibitor, to rapidly exchange the complex free of excess unlabelled inhibitor and to then start the exchange reaction by addition of an excess of a standard labelled inhibitor, the kinetic properties of which are already known. The reaction is then monitored and the relative proportions of bound and unbound label determined at various times. […] The latter is the method of choice when the rate of exchange is fast (t½<3 h).
In, variants of the above methods, off rates are measured either in the presence or absence of ˜25% v/v glycerol. In the presence of glycerol values obtained are generally ˜1.5-3× slower than in its absence although sometimes the change is outside this range or, even, in the other direction. Further examples of data obtained are depicted in the following Table 3.
Crude Extracts of recombinant E. coli strains expressing, in the one case, a control HPPD (from Arabidopsis) and, in the other, one or more test HPPD sequences are prepared as described in the preceding example. The titre of active sites and enzyme activity are also defined and measured as described in the preceding examples. […]

The test system of assay [1] is untransformed tobacco explants. In words: Explants on MS agar containing mesotrione, bleaching. Type of assay: in vivo. The note with it: MS agar + 3% sucrose. The source says: Explants (i.e. a leaf plus short segment of stem containing the auxiliary bud) are placed into MS agar (+3% sucrose) containing various concentrations of mesotrione (see above) from 0.02 to 2 ppm. In tobacco, for example, untransformed explants are fully bleached at 0.02 ppm. […] In these particular experiments, only the shoot that develops from the bud is bleached, the leaf on the explanted tissue remains green.

[2] abbreviates: Kd, value obtained + glycerol (in parentheses).
Where [3] appears, read: Kd, without glycerol, Kd = koff/kon.
[4] abbreviates: dissociation constant (Kd), in water at pH 7.0 and at 25 C.

Sequence of Wheat HPPD (A0A3B6NLC6 entry or part of it): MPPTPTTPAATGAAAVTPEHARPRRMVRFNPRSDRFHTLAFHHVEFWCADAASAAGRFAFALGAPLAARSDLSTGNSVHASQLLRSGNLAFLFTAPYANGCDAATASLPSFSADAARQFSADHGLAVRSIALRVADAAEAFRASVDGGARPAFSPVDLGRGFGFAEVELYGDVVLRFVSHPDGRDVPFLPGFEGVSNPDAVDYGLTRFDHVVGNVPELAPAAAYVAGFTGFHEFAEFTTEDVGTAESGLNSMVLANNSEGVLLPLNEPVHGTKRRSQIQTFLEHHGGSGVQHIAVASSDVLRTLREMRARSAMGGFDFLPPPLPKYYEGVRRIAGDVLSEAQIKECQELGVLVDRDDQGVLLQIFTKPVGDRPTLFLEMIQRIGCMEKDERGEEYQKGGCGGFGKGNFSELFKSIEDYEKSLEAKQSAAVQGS
Sequence of P. fluorescens HPPD (A0ACG8AE61 entry or part of it): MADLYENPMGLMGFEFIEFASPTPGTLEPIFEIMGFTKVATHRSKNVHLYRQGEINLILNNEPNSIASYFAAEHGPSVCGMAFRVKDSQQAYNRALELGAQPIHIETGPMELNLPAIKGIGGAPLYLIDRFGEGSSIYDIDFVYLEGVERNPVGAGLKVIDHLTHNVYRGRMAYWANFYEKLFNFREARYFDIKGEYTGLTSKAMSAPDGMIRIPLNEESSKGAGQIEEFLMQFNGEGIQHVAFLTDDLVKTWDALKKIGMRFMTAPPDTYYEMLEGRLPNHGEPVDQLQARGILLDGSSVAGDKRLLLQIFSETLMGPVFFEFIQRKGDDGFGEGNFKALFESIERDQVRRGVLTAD

Consider `CS(=O)(=O)c1ccc(C(=O)C2C(=O)CCCC2=O)c([N+](=O)[O-])c1` [Structure I, 2-(Nitro-4-methanesulphonylbenzoyl)-cyclohexane-1,3-dione, reference compound], for which the Kd on Wheat HPPD (setting [2]) was 6.33 nM; at Wheat HPPD (setting [3]) it was 7.41 nM; at Wheat HPPD (setting [4]), 6.5 to 7.5 nM; at P. fluorescens HPPD (setting [2]), 0.2 nM; on P. fluorescens HPPD (setting [3]), 0.114 nM. Moreover, the “concentration at which explants are fully bleached” value in assay [1] came to 0.02 ppm.
Consider `Cc1nc(C(F)(F)F)ccc1C(=O)C1C(=O)C2CCC(C2)C1=O` (stereo not drawn) [Structure II], for which the “ratio Kd2/Kd4, structure II to structure VII” value at Wheat HPPD was found to be 38. In addition, the “ratio koff2/koff4, structure II to structure VII” value on Wheat HPPD is 30 and 42. The Kd on Wheat HPPD (setting [3]) is 6.73 nM; at Wheat HPPD (setting [4]) it was 6.5 to 7.5 nM; on P. fluorescens HPPD (without glycerol, Kd = koff/kon, read-out: Kd), 2.17 nM. The off-rate (koff) at Wheat HPPD (in water at pH 7.0 and at 25 C, values of Table 3 restated) was 0.00035 s⁻¹; on Wheat HPPD (pH 7, in water at pH 7.0 and at 25 C, values of Table 3 restated) it was 0.00025 s⁻¹; at Wheat HPPD (− glycerol), 0.00025 s⁻¹ and 0.00035 s⁻¹; on P. fluorescens HPPD (− glycerol), 5e-05 s⁻¹.
